# Reference: patent publication US10421761B2, “Compounds for kinase modulation, and indications therefor” (Plexxikon Inc., priority 2013, dated 2019)
# Test system: B9 cells
# Conditions: Repl. 1; B9 cells
structure (smiles),measurement,value
CCCS(=O)(=O)Nc1ccc(F)c(C(=O)c2c[nH]c3ncc(-c4ccc(Cl)cc4)cc23)c1F [vemurafenib],"probe 1426300_at response, Alcam (activated leukocyte cell adhesion molecule)",2.35
same,"probe 1426306_a_at response, LOC100046560 /// Maged2 (similar to melanoma antigen family D, 2 /// melanoma antigen, family D, 2)",2.18
same,"probe 1426708_at response, Antxr2 (anthrax toxin receptor 2)",2.19
same,"probe 1426806_at response, Obfc2a (oligonucleotide/oligosaccharide-binding fold containing 2A)",2.33
same,"probe 1426848_at response, LOC100047481 /// Sec24b (similar to SEC24 related gene family, member B (S. cerevisiae) /// Sec24 related gene family, member B (S. cerevisiae))",0.69
same,"probe 1426972_at response, Sec24d (Sec24 related gene family, member D (S. cerevisiae))",2.06
same,"probe 1427278_at response, Clip4 (CAP-GLY domain containing linker protein family, member 4)",1.98
same,"probe 1427364_a_at response, Odc1 (ornithine decarboxylase, structural 1)",2.73
same,"probe 1427512_a_at response, Lama3 (laminin, alpha 3)",2.61
same,"probe 1427527_a_at response, Pthlh (parathyroid hormone-like peptide)",2.73
same,"probe 1427885_at response, Pold4 (polymerase (DNA-directed), delta 4)",2.20
same,"probe 1428114_at response, Slc14a1 (solute carrier family 14 (urea transporter), member 1)",2.61
same,"probe 1428195_at response, Ahcyl2 (S-adenosylhomocysteine hydrolase-like 2)",2.42
same,"probe 1428228_at response, Pgm3 (phosphoglucomutase 3)",2.18
same,"probe 1428419_at response, 5430411K18Rik (RIKEN cDNA 5430411K18 gene)",2.16
same,"probe 1428851_at response, 1300014I06Rik (RIKEN cDNA 1300014I06 gene)",2.30
same,"probe 1429700_at response, 3110040M04Rik (RIKEN cDNA 3110040M04 gene)",3.18
same,"probe 1429844_at response, 2310043J07Rik (RIKEN cDNA 2310043J07 gene)",0.52
same,"probe 1430010_at response, Ncapd2 (non-SMC condensin I complex, subunit D2)",0.43
same,"probe 1430567_at response, Spink5 (serine peptidase inhibitor, Kazal type 5)",0.46
same,"probe 1430623_s_at response, Obfc2a (oligonucleotide/oligosaccharide-binding fold containing 2A)",2.11
same,"probe 1430700_a_at response, Pla2g7 (phospholipase A2, group VII (platelet-activating factor acetylhydrolase, plasma))",2.36
same,"probe 1431416_a_at response, Jam2 (junction adhesion molecule 2)",2.12
same,"probe 1431422_a_at response, Dusp14 (dual specificity phosphatase 14)",2.14
same,"probe 1431611_a_at response, Cadm1 (cell adhesion molecule 1)",2.15
same,"probe 1431688_at response, LOC73899 (hypothetical LOC73899)",2.56
same,"probe 1431691_a_at response, Rab31 (RAB31, member RAS oncogene family)",1.98
same,"probe 1433909_at response, Syt17 (synaptotagmin XVII)",2.02
same,"probe 1434059_at response, B230312A22Rik (RIKEN cDNA B230312A22 gene)",2.26
same,"probe 1434092_at response, Atg9b (ATG9 autophagy related 9 homolog B (S. cerevisiae))",2.04
same,"probe 1434109_at response, Sh3bgrl2 (SH3 domain binding glutamic acid-rich protein like 2)",2.50
same,"probe 1434252_at response, Tmcc3 (transmembrane and coiled coil domains 3)",1.99
same,"probe 1434601_at response, Amigo2 (adhesion molecule with Ig like domain 2)",2.11
same,"probe 1434957_at response, Cdon (cell adhesion molecule-related/down-regulated by oncogenes)",0.44
same,"probe 1435066_at response, Pitpnc1 (phosphatidylinositol transfer protein, cytoplasmic 1)",2.04
same,"probe 1435176_a_at response, Id2 (inhibitor of DNA binding 2)",0.44
same,"probe 1435330_at response, Pyhin1 (pyrin and HIN domain family, member 1)",2.34
same,"probe 1435331_at response, Pyhin1 (pyrin and HIN domain family, member 1)",3.91
same,"probe 1435460_at response, Prkg2 (protein kinase, cGMP-dependent, type II)",2.07
same,"probe 1435695_a_at response, Ggct (gamma-glutamyl cyclotransferase)",2.16
same,"probe 1436100_at response, Sh2d5 (SH2 domain containing 5)",2.12
same,"probe 1436329_at response, Egr3 (early growth response 3)",2.75
same,"probe 1436584_at response, Spry2 (sprouty homolog 2 (Drosophila))",3.28
same,"probe 1436659_at response, Dclk1 (doublecortin-like kinase 1)",2.44
same,"probe 1436917_s_at response, Gpsm1 (G-protein signalling modulator 1 (AGS3-like, C. elegans))",2.22
same,"probe 1436944_x_at response, Pisd /// Pisd-ps1 ///Pisd-ps3 (phosphatidylserine decarboxylase /// phosphatidylserine decarboxylase, pseudogene 1 /// phosphatidylserine decarboxylase, pseudogene 3)",0.53
same,"probe 1437092_at response, Clip4 (CAP-GLY domain containing linker protein family, member 4)",2.37
same,"probe 1437100_x_at response, Pim3 (proviral integration site 3)",2.03
same,probe 1437199_at response,4.17
same,"probe 1437271_at response, Clcf1 (cardiotrophin-like cytokine factor 1)",2.09
same,"probe 1437486_at response, Gprc5a (G protein-coupled receptor, family C, group 5, member A)",2.49
same,"probe 1437982_x_at response, Cox15 (COX15 homolog, cytochrome c oxidase assembly protein (yeast))",0.51
same,"probe 1438038_at response, 4930402H24Rik (RIKEN cDNA 4930402H24 gene)",2.10
same,"probe 1438664_at response, Prkar2b (protein kinase, cAMP dependent regulatory, type II beta)",0.44
same,"probe 1438699_at response, Srd5a1 (steroid 5 alpha-reductase 1)",1.89
same,"probe 1439016_x_at response, Sprr2a (small proline-rich protein 2A)",0.40
same,"probe 1439109_at response, Ccdc68 (coiled-coil domain containing 68)",0.45
same,"probe 1439434_x_at response, Sh2d5 (SH2 domain containing 5)",2.06
same,"probe 1439797_at response, Ppard (peroxisome proliferator activator receptor delta)",2.09
same,"probe 1439878_at response, Ivl (involucrin)",3.09
same,"probe 1440169_x_at response, Ifnar2 (interferon (alpha and beta) receptor 2)",0.53
same,"probe 1440559_at response, Hmga2-ps1 (high mobility group AT-hook 2, pseudogene 1)",3.39
same,"probe 1441315_s_at response, Slc19a2 (solute carrier family 19 (thiamine transporter), member 2)",2.46
same,"probe 1441917_s_at response, Tmem40 (transmembrane protein 40)",2.00
same,probe 1442350_at response,2.22
same,"probe 1442363_at response, 1110012J17Rik (RIKEN cDNA 1110012J17 gene)",2.08
same,"probe 1443536_at response, Slc7a11 (solute carrier family 7 (cationic amino acid transporter, y+ system), member 11)",0.39
same,probe 1445758_at response,0.47
same,"probe 1446791_at response, Pi15 (peptidase inhibitor 15)",1.12
same,probe 1447661_at response,0.53
same,"probe 1447845_s_at response, Vnn1 (vanin 1)",0.46
same,"probe 1448364_at response, Ccng2 (cyclin G2)",2.30
same,"probe 1448532_at response, Prl8a9 (prolactin family8, subfamily a, member 9)",2.70
same,"probe 1448562_at response, Upp1 (uridine phosphorylase 1)",2.68
same,"probe 1448613_at response, Ecm1 (extracellular matrix protein 1)",2.00
same,"probe 1448617_at response, Cd53 (CD53 antigen)",2.24
same,"probe 1448810_at response, Gne (glucosamine)",2.16
same,"probe 1448855_at response, Rassf1 (Ras association (RalGDS/AF-6) domain family member 1)",1.97
same,"probe 1448894_at response, Akr1b8 (aldo-keto reductase family 1, member B8)",2.01
same,"probe 1448978_at response, Ngef (neuronal guanine nucleotide exchange factor)",3.21
same,"probe 1449038_at response, Hsd11b1 (hydroxysteroid 11-beta dehydrogenase 1)",2.96
same,"probe 1449125_at response, Tnfaip8l1 (tumor necrosis factor, alpha-induced protein 8-like 1)",2.14
same,"probe 1449133_at response, Sprr1a (small proline-rich protein 1A)",2.53
same,"probe 1449268_at response, Gfpt1 (glutamine fructose-6-phosphate transaminase 1)",2.82
same,"probe 1449297_at response, Casp12 (caspase 12)",0.41
same,"probe 1449334_at response, Timp3 (tissue inhibitor of metalloproteinase 3)",0.43
same,"probe 1449367_at response, Trex2 (three prime repair exonuclease 2)",4.45
same,"probe 1449408_at response, Jam2 (junction adhesion molecule 2)",2.04
same,"probe 1449545_at response, Fgf18 (fibroblast growth factor 18)",3.88
same,"probe 1449965_at response, Mcpt8 (mast cell protease 8)",2.83
same,"probe 1450241_a_at response, Evi2a (ecotropic viral integration site 2a)",4.78
same,"probe 1450262_at response, Clcf1 (cardiotrophin-like cytokine factor 1)",2.62
same,"probe 1450276_a_at response, Scin (scinderin)",2.73
same,"probe 1450376_at response, Mxi1 (Max interacting protein 1)",2.20
same,"probe 1450430_at response, Mrc1 (mannose receptor, C type 1)",2.66
same,"probe 1450501_at response, Itga2 (integrin alpha 2)",3.02
same,"probe 1450791_at response, Nppb (natriuretic peptide precursor type B)",4.55
same,"probe 1450976_at response, Ndrg1 (N-myc downstream regulated gene 1)",2.23
same,"probe 1451006_at response, Xdh (xanthine dehydrogenase)",0.40
same,"probe 1451308_at response, Elovl4 (elongation of very long chain fatty acids (FEN1/Elo2, SUR4/Elo3, yeast)-like 4)",2.50
same,"probe 1451446_at response, Antxr1 (anthrax toxin receptor 1)",0.41
same,"probe 1451501_a_at response, Ghr (growth hormone receptor)",2.21
same,"probe 1451529_at response, Sgtb (small glutamine-rich tetratricopeptide repeat (TPR)-containing, beta)",1.91
same,"probe 1451798_at response, Il1rn (interleukin 1 receptor antagonist)",3.05
same,"probe 1452058_a_at response, Rnfl1 (ring finger protein 11)",2.07
same,"probe 1452087_at response, Epsti1 (epithelial stromal interaction 1 (breast))",2.20
same,"probe 1452203_at response, Obfc2a (oligonucleotide/oligosaccharide-binding fold containing 2A)",2.07
same,"probe 1452521_a_at response, Plaur (plasminogen activator, urokinase receptor)",2.33
same,"probe 1453055_at response, Sema6d (sema domain, transmembrane domain (TM), and cytoplasmic domain, (semaphorin) 6D)",3.32
same,"probe 1453278_a_at response, Clip4 (CAP-GLY domain containing linker protein family, member 4)",2.00
same,"probe 1453345_at response, Nipal1 (NIPA-like domain containing 1)",3.86
same,"probe 1454048_a_at response, 4931408A02Rik /// LOC630876 (RIKEN cDNA 4931408A02 gene /// similar to Protein C21orf63 homolog precursor)",0.40
same,"probe 1454254_s_at response, 1600029D21Rik (RIKEN cDNA 1600029D21 gene)",2.37
same,"probe 1454649_at response, Srd5a1 (steroid 5 alpha-reductase 1)",2.02
same,"probe 1454699_at response, LOC100047324 /// Sesn1 (similar to Sesn1 protein /// sestrin 1)",0.50
same,"probe 1454710_at response, Spink2 (serine peptidase inhibitor, Kazal type 2)",2.39
same,"probe 1454780_at response, Galntl4 (UDP-N-acetyl-alpha-D-galactosamine:polypeptide N-acetylgalactosaminyltransferase-like 4)",0.42
same,"probe 1454877_at response, Sertad4 (SERTA domain containing 4)",0.40
